Series [1] can be described thus: Solubility in aqueous media. In kind it is physicochemical. Particulars: PBS, micromolar concentrations.
Series [2] can be described thus: Fluorogenic characterization of HELIOS probes on reaction with TCOc. Particulars: for peak turn-on ratio upon reaction with TCOc: PBS; for Fluorescence Enhancement: fluorogenic turn-on ratio of the Me-tetrazines upon reaction with TCOc. In kind it is physicochemical. Here is the method:
As described above, the fluorescence purity of all HELIOS compounds was verified by LCMS prior to quantitative activation experiments, for which a fresh aliquot of the fluorophore collected from the analytical HPLC elution was used. Exceptionally pure material is required to obtain the peak measured turn-on ratios, as the presence of trace bright contaminants limits the maximum observable ratio.
(§1) Stock solutions of the freshly-purified tetrazine dyes were prepared in MeCN and stored in the dark at 4° C. during experiments. For fluorescence measurements, the probes diluted into 2 mL or 3 mL of phosphate buffered saline (PBS), pH 7.4 (Corning, cellgro) in a standard 10 mm quartz cuvette. Working at peak excitation and emission wavelengths for each probe, data were collected as a continuous time series to enable accurate measurement of the baseline intensity values and optimize signal to noise. Fluorescence experiments were conducted at a range of dye concentrations spanning 100 nM-750 nM, with 500 nM being a typical working concentration. The time to peak turn on ratio (but not the final magnitude) is a function of the added TCOc (see Example 25) concentration; for the time courses presented herein, 10 μM TCOc was used. Measurements of solvent and pre-activation emission intensity for baseline values were collected serially over at least 30 seconds, prior to addition of TCOc to initiate the fluorogenic reaction. After addition of TCOc (typically a 20-fold excess, as above), the fluorescence emission intensity was monitored until a plateau was reached. Activation ratios were calculated from the peak emission intensity of the dihydropyridazine product and the corresponding baseline intensity over background. Data were normalized to set the initial background fluorescence of the HELIOS probe to one unit over background, as plotted in FIG. 9 in the main text.

The nature of series [3]: Peak excitation/emission wavelengths and extinction coefficient in PBS. Particulars: for Peak Em Wavelength: emission; for Peak Ex Wavelength: excitation; for ε: at peak excitation wavelength in PBS, pH 7.4, in M-1cm-1 (unit assumed). In kind it is physicochemical. The method, then:
as §1
(§2) Microscope: Multichannel images were collected on an Olympus Fluoview FV1000 confocal laser microscope. Coumarin probes were excited with a 405 nm laser, with alternate excitation sources used as relevant for reference channels, paired with appropriate emission filter sets. Cell culture: A-431 cells (ATCC CRL-1555) and COS-1 cells (ATCC CRL-1650) were cultivated in Dulbecco's Modified Eagle's Medium (DMEM), supplemented with 10% fetal bovine serum and grown in standard culture conditions in 10 cm dishes. OVCA-429 cells were cultivated in RPMI-1640 supplemented with 10% fetal bovine serum under standard culture conditions. For imaging experiments cells were plated on Millicell EZ slides (EMD Millipore, Inc, Billerica, Mass.). Antibody reagents: Monoclonal antibody-TCO conjugates were prepared by incubation of commercially available monoclonal antibodies TCO-PEG4-NHS (Click Chemistry Tools, Scottsdale, Ariz.). Anti EGFR (Cetuximab, Imclone). Anti cytochrome c oxidase (COXIV, Cell signaling Technology, #4844, Danvers, Mass.). An aliquot of antibody in the manufacturer-supplied storage solution was buffer exchanged into PBS with 10 mM sodium bicarbonate, pH 8.0, on a 40K ZebaSpin desalting column (0.5 mL, Thermo Fisher Scientific, Rockford, Ill.). To this solution was added 20 equivalents of TCO-PEG4-NHS; the mixture was allowed to react at 25° C. for 30 minutes, with continuous shaking. The reaction mix was loaded onto a 40K ZebaSpin column to remove organic solvent and small molecule fractions; this eluate was loaded onto a second 40K ZebaSpin column to ensure comprehensive removal of any excess TCO. EGFR Imaging: Fixed A431 cells were prepared by treatment with 4% paraformaldehyde solution (10 min, room temperature), followed by 3 washes with PBS. Fixed cells were stored at 4° C. until the time of imaging, when they were incubated for 20 minutes with 20 μg/mL cetuximab-TCO, then rinsed three times with PBS. For optimal image quality, HELIOS 370H probe must be purified on the day of imaging by reversed phase HPLC-MS. The concentration of stock solutions in PBS were calculated by absorbance spectrometry, based on the measured extinction coefficient of 19000 M^−1 cm^−1. Prior to imaging, the purified stock solutions were subjected to turn-on testing, verifying a fluorogenic turn-on ratio of >1000-fold for HELIOS 370H. For imaging experiments, the acetonitrile stocks were diluted into PBS to yield a 100 nM solution. […]

A short description of series [4]: Quantum yield determination, quinine sulfate reference. The class given is physicochemical. The note with it: dihydropyridazine product after complete reaction with TCOc in PBS pH 7.4; quinine sulfate standard (Φ = 0.546). The source says:
Quantum yield determinations: quinine sulfate dihydrate (Fluorescence Reference Standard grade, AnaSpec, Inc) in 0.5 M H2SO4 was used as a reference, with an excitation wavelength of 370 nm; a value of 0.546 was used for the reference quantum yield (Eaton, D. F., Pure and Applied Chemistry, 1988 60(7), 1107-1114). Calculations were made according to the methods described by Crosby and Demas (Chemical Reviews, 1971, 75(8), 991-1024).

The nature of series [5]: Solvent polarity effects on fluorescence emission of the native probe. In kind it is physicochemical. Particulars: PBS pH 7.4, acetonitrile, toluene. Here is the method:
FIG. 5 provides the absorption and fluorescence emission spectra of 4b in toluene (dielectric constant 2.4) and acetonitrile (dielectric constant 37.5). Samples were prepared by matched dilutions from a concentrated stock solution of 4b. For the fluorescence spectra, the excitation wavelength was offset from peak absorbance in that solvent by 10 nm; in toluene, the excitation wavelength was 496 nm; in acetonitrile,
Fluorescence emission spectra of HELIOS 400Me in PBS (pH 7.4), acetonitrile (dielectric constant 37.5), and toluene (dielectric constant 2.4) was measured (see FIG. 10). Emission spectra are the mean of 2 or 3 scans and the dashed lines represent +/−SEM. Instrument settings were adjusted to optimize sensitivity given the minimal fluorescence of the native HELIOS probe, and samples were prepared by matched dilution of a concentrated stock solution of HELIOS 400Me into the respective solvents. […] J. Meskers, E. H. A. Beckers, S. Chopin, R. A. J. Janssen, J. Phys. Chem. A 2006, 110, 12363].

Series [6] deals with epidermal growth factor receptor (EGFR) on A431 cells. The series is described as follows: No-wash fluorogenic imaging of EGFR on A431 cells after cetuximab-TCO. The class given is cell-based, human.
Excerpt: as §2, with “For optimal image quality, HELIOS 370H probe must be purified on the day of imaging by reversed phase HPLC-MS.” left out, “cm^−1.” for “cm^−1. Prior to imaging, the purified stock solutions were subjected to turn-on testing, verifying a fluorogenic turn-on ratio of >1000-fold for HELIOS 370H. For imaging experiments, the acetonitrile stocks were diluted into PBS to yield a 100 nM solution.”

Series [7] deals with mitochondria of OVCA-429 cells. The series is described as follows: Mitochondria imaging of OVCA-429 cells after anti-COX IV-TCO. In kind it is cell-based.
Excerpt: as §2, with “For optimal image quality, HELIOS 370H probe must be purified on the day of imaging by reversed phase HPLC-MS.” left out, “cm^−1.” for “cm^−1. Prior to imaging, the purified stock solutions were subjected to turn-on testing, verifying a fluorogenic turn-on ratio of >1000-fold for HELIOS 370H. For imaging experiments, the acetonitrile stocks were diluted into PBS to yield a 100 nM solution.”

Each structure is given as a SMILES string.

Turning to `Cc1nnc(-c2ccc(-c3c(C)c4cc5c6c(c4oc3=O)CCCN6CCC5)cc2)nn1` [HELIOS 400pMe], in series [1], the “Solubility in phosphate buffered saline” value is given as “soluble”. Further, the “peak turn-on ratio upon reaction with TCOc” value in series [2] is recorded as 1,000 fold.
In series [3], `Cc1c(CC(=O)NCc2ccc(-c3nncnn3)cc2)c(=O)oc2c(F)c(O)c(F)cc12` [Marina Blue-Tz, reference compound] gave a Peak Em Wavelength of 459 nm and a Peak Ex Wavelength of 362 nm. Moreover, in series [2], the “peak turn-on ratio upon reaction with TCOc” value amounted to 60 fold and the “Fluorescence Enhancement” value is on record as 60-fold.
In the case of `Cc1nnc(-c2cccc(-c3c(C)c4cc(F)c(O)c(F)c4oc3=O)c2)nn1` [HELIOS 370Me], in series [3], the ε was 19,000, the Peak Em Wavelength came out at 463 nm and the Peak Ex Wavelength was 370 nm. In series [2], the “peak turn-on ratio upon reaction with TCOc” value is recorded as 2,900 fold and the “Fluorescence Enhancement” value is 2,900-fold. Besides, in series [4], the “Φ w/TCOc” value came out at 0.49.
`Cc1nnc(-c2cccc(-c3c(C)c4cc5c6c(c4oc3=O)CCCN6CCC5)c2)nn1` [HELIOS 400Me]: the “Solubility in phosphate buffered saline” value in series [1] was “soluble”. Moreover, the “peak turn-on ratio upon reaction with TCOc” value in series [2] is recorded as 4,000 fold. Also, the “dependence of fluorescence emission intensity on solvent polarity” value in series [5] was “largely independent of solvent polarity”.
For `Cc1c(-c2cccc(-c3nncnn3)c2)c(=O)oc2c(F)c(O)c(F)cc12` [HELIOS 370H], the staining pattern result in series [6] (100 nM in PBS, no wash) was “bright, membrane specific staining”. Further, the “time until specific staining evident” value in series [6] (100 nM probe in PBS, fixed A431 cells, cetuximab-TCO) is at most 10 s. For the same compound, the nonspecific binding entry in series [6] (after extended incubation) was “no nonspecific binding”. In addition, the measured extinction coefficient in series [3] (stock solutions in PBS) was 19000 M⁻¹ cm⁻¹. Besides, the “fluorogenic turn-on ratio of purified stock prior to imaging” value in series [2] (turn-on testing of freshly purified stock solutions) is above 1000 fold.
For `Cc1nnc(-c2cccc(-c3c(C)c4cc5c(cc4oc3=O)NCCC5)c2)nn1` [HELIOS 388Me], in series [3], the ε is reported as 20,000, the Peak Em Wavelength was determined as 482 nm and the Peak Ex Wavelength turned out to be 388 nm. Moreover, in series [2], the “peak turn-on ratio upon reaction with TCOc” value is on record as 11,000 fold and the “Fluorescence Enhancement” value is reported as 11,000-fold. In series [4], the “Φ w/TCOc” value was found to be 0.38.
`Cc1nnc(-c2cccc(-c3c(C)c4ccc(N)cc4oc3=O)c2)nn1` [HELIOS 347Me]: in series [3], the ε is listed as 18,500, the Peak Em Wavelength came to 455 nm and the Peak Ex Wavelength amounted to 347 nm. Also, in series [2], the “peak turn-on ratio upon reaction with TCOc” value is given as 2,500 fold and the “Fluorescence Enhancement” value is on record as 2,500-fold. Moreover, the “Φ w/TCOc” value in series [4] turned out to be 0.29.
Take `Cc1c(-c2cccc(-c3nncnn3)c2)c(=O)oc2cc3c(cc12)CCCN3` [HELIOS 388H]: in series [7] (100 nM, fixed and permeabilized OVCA-429 cells), the “time until mitochondrial labeling evident” value was at most 2 min. In addition, the “colocalization with mitochondria-specific RFP” value in series [7] (OVCA-429 cells expressing RFP) is given as “good colocalization”. Also, the “target to background ratio over time” value in series [7] (serial images up to an hour from dye addition) is recorded as “stable target to background ratios”.

The record behind these values is US10517965B2, “Bioorthogonal turn-on probes” (The General Hospital Corporation, priority 2013, dated 2019).
